# Results from patent US8907126B2, “Tyrosine derivative and method for producing tyrosine derivative” (NARD Institute, Ltd., priority 2012, dated 2014).
# Target: T1, human recombinant melatonin MT1 receptors (Homo sapiens, UniProt P48039)
# T1 construct: expressed in transfected cells; host or cells: CHO-K1 cells (membranes)
# Experiment: Inhibitory activity test against melatonin MT1 receptor ([35S]GTPγS binding, SPA)
# Assay type: biochemical
# Conditions: membranes of CHO-K1 cells expressing MT1, 0.1 nM 2-iodomelatonin, 0.3 nM [35S]GTPγS, HEPES buffer pH 7.4; test concentration not given
# Description: An inhibitory activity of the tyrosine derivative of the present invention against a melatonin MT1 receptor was evaluated. Specifically, human recombinant melatonin MT1 receptors expressed in CHO-K1 cells were used in modified HEPES buffer pH 7.4. The tyrosine derivative obtained in the above Example 8 was preincubated with 0.025 mg/mL of membranes of the cell and 1 μM of guanosine diphosphate in modified HEPES buffer (pH 7.4) at 25° C. for 20 minutes, then SPA, i.e. Scintillation proximity assay, beads were added thereto. The mixture was preincubated at 30° C. for 60 minutes. The reaction was initiated by adding 0.3 nM of [^35S]GTPγS and incubating the mixture for 30 minutes, and the test compound-induced inhibition of 0.1 nM 2-iodomelatonin-induced increase of [^35S]GTPγS binding response was measured.
# T1 sequence (P48039 whole entry): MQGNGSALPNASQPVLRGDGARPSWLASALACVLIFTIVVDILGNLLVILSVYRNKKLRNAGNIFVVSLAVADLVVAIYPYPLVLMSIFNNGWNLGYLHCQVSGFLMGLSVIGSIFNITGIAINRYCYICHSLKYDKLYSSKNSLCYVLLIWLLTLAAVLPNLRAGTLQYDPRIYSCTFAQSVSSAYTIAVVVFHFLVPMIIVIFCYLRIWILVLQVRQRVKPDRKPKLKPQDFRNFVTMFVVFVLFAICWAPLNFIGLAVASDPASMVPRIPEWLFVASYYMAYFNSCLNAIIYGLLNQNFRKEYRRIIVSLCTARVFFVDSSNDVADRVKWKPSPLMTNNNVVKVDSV
smiles,measurement,value
CC(C)(C)OC(=O)NC(Cc1cc(OCCCl)ccc1I)C(=O)OC(C)(C)C (stereo not shown) [Example 8],inhibition of 2-iodomelatonin-induced increase of [35S]GTPγS binding response,33%
